According to ChEMBL document CHEMBL6071156 (Eur J Med Chem, 2024):

Target: T1, Potassium voltage-gated channel subfamily KQT member 1 (Homo sapiens, UniProt P51787)
T1 sequence (P51787 whole entry): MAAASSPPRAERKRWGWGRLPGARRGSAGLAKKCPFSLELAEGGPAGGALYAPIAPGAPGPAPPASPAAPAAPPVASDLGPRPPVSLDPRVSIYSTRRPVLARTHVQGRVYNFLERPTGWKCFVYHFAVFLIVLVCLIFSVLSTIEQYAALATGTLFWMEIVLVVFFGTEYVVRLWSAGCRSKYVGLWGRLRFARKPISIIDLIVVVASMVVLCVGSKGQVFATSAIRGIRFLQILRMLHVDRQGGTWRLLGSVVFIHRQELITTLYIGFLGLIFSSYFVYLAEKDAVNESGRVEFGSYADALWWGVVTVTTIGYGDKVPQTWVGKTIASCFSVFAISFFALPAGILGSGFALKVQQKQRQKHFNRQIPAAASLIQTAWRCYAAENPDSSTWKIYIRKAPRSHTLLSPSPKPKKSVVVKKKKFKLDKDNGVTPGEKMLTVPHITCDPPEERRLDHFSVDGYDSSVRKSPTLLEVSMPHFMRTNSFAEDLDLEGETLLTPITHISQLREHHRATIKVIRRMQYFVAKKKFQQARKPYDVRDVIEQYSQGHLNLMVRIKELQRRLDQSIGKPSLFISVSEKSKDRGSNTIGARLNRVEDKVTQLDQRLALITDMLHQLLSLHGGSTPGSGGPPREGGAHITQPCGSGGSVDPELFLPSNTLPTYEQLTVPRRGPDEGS
Assay: Antagonist activity at recombinant hKCNQ1/hmink expressed in CHO-K1 cells by Electrophysiology
Assay type: toxicity, cell-based

Q: For `CC1CCNc2c(C(=O)NC/C=C/S(C)(=O)=O)cccc21` (stereo unspecified), which IC50 is on record?
A: > 100 µM
